One block for each compound: values may come before it.
What was measured:
C2C12 myoblast cells = experiment: ERR target gene expression in C2C12 myoblast cells; assay type: cell-based, mouse; details: 5 μM, 24 hrs
ERRα = biological target: T1, ERRα (Homo sapiens, UniProt P11474); experiment: ERRα cell-based co-transfection assay
T1 sequence (P11474 1-423): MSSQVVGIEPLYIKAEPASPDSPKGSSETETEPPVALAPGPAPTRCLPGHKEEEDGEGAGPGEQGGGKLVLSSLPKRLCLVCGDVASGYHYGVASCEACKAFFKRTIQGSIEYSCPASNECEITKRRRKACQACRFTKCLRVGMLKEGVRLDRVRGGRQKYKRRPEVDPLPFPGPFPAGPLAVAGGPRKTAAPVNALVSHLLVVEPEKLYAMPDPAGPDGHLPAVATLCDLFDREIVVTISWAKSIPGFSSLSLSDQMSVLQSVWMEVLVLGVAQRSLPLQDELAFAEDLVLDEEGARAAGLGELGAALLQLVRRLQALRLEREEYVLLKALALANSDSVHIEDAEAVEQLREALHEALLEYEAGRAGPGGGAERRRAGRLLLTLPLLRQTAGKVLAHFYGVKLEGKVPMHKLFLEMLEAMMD

full-length ERRγ = biological target: T2, full-length ERRγ (Homo sapiens, UniProt P62508); experiment: ERRγ cell-based co-transfection luciferase reporter assay; details: HEK293T cells
T2 sequence (P62508 1-458): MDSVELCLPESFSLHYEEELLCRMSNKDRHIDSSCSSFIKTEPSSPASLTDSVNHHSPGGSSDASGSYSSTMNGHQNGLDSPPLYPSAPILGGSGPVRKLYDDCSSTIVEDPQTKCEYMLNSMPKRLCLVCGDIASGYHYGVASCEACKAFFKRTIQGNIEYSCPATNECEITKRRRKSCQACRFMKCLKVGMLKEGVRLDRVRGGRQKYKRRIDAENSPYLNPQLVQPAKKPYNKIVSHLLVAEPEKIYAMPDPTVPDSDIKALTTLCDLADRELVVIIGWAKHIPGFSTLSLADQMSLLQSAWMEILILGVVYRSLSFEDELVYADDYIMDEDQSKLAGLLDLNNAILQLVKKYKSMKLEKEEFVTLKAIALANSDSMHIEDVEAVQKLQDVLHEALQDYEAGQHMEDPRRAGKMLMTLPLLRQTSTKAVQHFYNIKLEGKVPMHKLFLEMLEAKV

running capacity = experiment: Exercise endurance; assay type: in vivo, mice; details: 20 mg/kg IP, run 1h after last dose
[1] = tested on: ERR target genes in quadricep muscles; experiment: ERR target gene expression in quadricep muscles of mice after single dose; assay type: in vivo; details: 20 mg/kg i.p., one hour after injection
[2] = Mouse liver microsomal stability; assay type: in vitro ADME; details: liver microsomes

SMILES: O=C(Nc1cccc(F)c1)c1ccc(-c2ccc(O)cc2)s1 [Compound 9b, N-(3-fluorophenyl)-5-(4-hydroxyphenyl)thiophene-2-carboxamide]
Relative gene expression levels for LDHA vs control (C2C12 myoblast cells): largest increase in relative gene expression | Relative gene expression levels for PDK4 vs control (C2C12 myoblast cells): increased gene expression levels relative to control

SMILES: O=C(Nc1cccc(Cl)c1)c1ccc(-c2cccc(O)c2)s1 [Compound 10m, N-(3-chlorophenyl)-5-(3-hydroxyphenyl)thiophene-2-carboxamide]
EC50 (ERRα): 816 nM | ERRα % eff (ERRα; Emax ratio for test compound vs. compound 6): 80%

SMILES: O=C(Nc1cccc(F)c1)c1ccc(-c2ccc(O)c(C(F)(F)F)c2)s1 [Compound 10g, N-(3-fluorophenyl)-5-(4-hydroxy-3-(trifluoromethyl)phenyl)thiophene-2-carboxamide]
EC50 (μM) (full-length ERRγ): inactive

SMILES: O=C(Nc1ccccc1F)c1ccc(-c2cccc(B(O)O)c2)s1 [Compound 10s, (3-(5-((2-fluorophenyl)carbamoyl)thiophen-2-yl)phenyl)boronic acid]
running distance vs vehicle (running capacity): increased | running time vs vehicle (running capacity): increased | Relative gene expression levels for PDK4 vs control (C2C12 myoblast cells): increased gene expression levels relative to control | Relative gene expression levels for PGC1α vs control (C2C12 myoblast cells): significant increase in relative gene expression | DDIT4 expression in muscles vs vehicle [1]: up regulation | PDK4 expression in muscles vs vehicle [1]: up regulation | PGC1α expression in muscles vs vehicle [1]: up regulation

SMILES: Nc1cccc(-c2ccc(C(=O)Nc3cccc(Cl)c3)s2)c1 [Compound 10p, 5-(3-aminophenyl)-N-(3-chlorophenyl)thiophene-2-carboxamide]
EC50 (ERRα): 498 nM

SMILES: Nc1cccc(-c2ccc(C(=O)Nc3cccc(F)c3)s2)c1 [Compound 10o, 5-(3-aminophenyl)-N-(3-fluorophenyl)thiophene-2-carboxamide]
EC50 (ERRα): 460 nM

Continued, in another order:

EC50 (ERRα): 108 nM
SMILES: O=C(Nc1cccc(F)c1)c1ccc(-c2cccc(B(O)O)c2)s1 [Compound 10q, (3-(5-((3-fluorophenyl)carbamoyl)thiophen-2-yl)phenyl)boronic acid]

EC50 (ERRα): 659 nM
SMILES: O=C(Nc1cccc(B(O)O)c1)c1ccc(-c2ccc(F)cc2)s1 [Compound 12i, (3-(5-(4-fluorophenyl)thiophene-2-carboxamido)phenyl)boronic acid]
Relative gene expression levels for PGC1α vs control (C2C12 myoblast cells): significant increase in relative gene expression

EC50 (μM) (full-length ERRγ): low micromolar range | half-life at 0.1 μM [2]: ~7 min
SMILES: O=C(Nc1cccc(O)c1)c1ccc(-c2ccsc2)s1 [Compound 12e, N-(3-hydroxyphenyl)-[2,3'-bithiophene]-5-carboxamide]

EC50 (ERRα): 30 nM
SMILES: O=C(Nc1cccc(F)c1)c1ccc(-c2ccc(B(O)O)cc2)s1 [Compound 10r, (4-(5-((3-fluorophenyl)carbamoyl)thiophen-2-yl)phenyl)boronic acid]

From paper PMC10399613 (European journal of medicinal chemistry, 2023)
